According to ChEMBL document CHEMBL4477225, “Development of a cell viability assay to assess drug metabolite structure-toxicity relationships” (Bioorg Med Chem Lett, 2016):

Columns and labels:
Conditions in all cases: recombinant enzyme
Cytochrome P450 2C9 [1] = target: T1, Cytochrome P450 2C9 (Homo sapiens, UniProt P11712); assay: (§1) Drug activation in human Hep3B cells assessed as human CYP2C9-mediated drug metabolism-induced cytotoxicity measured as decrease in cell viability at 7.6 uM pre-incubated with BSO for 18 hrs followed by incubation with compound for 3 hrs in presence of NADPH measured after 24 hrs in absence of compound, CYP3A4 and NADPH by cell titer-glo luminescence assay relative to BSO alone; type: ADME, cell-based
Cytochrome P450 3A4 [2] = target: T2, Cytochrome P450 3A4 (Homo sapiens, UniProt P08684); assay: as §1, with “CYP3A4-mediated” for “CYP2C9-mediated”, “9.6” for “7.6”; type: ADME, cell-based
Cytochrome P450 2D6 [3] = target: T3, Cytochrome P450 2D6 (Homo sapiens, UniProt P10635); assay: as §1, with “CYP2D6-mediated” for “CYP2C9-mediated”, “12.8” for “7.6”; type: ADME, cell-based
Cytochrome P450 2C9 [4] = target: T1, Cytochrome P450 2C9; assay: as §1, with “34” for “7.6”; type: ADME, cell-based
Cytochrome P450 2D6 [5] = target: T3, Cytochrome P450 2D6; assay: as §1, with “CYP2D6-mediated” for “CYP2C9-mediated”, “188.9” for “7.6”; type: ADME, cell-based
Cytochrome P450 2C9 [6] = target: T1, Cytochrome P450 2C9; assay: as §1, with “150” for “7.6”; type: ADME, cell-based
Cytochrome P450 3A4 [7] = target: T2, Cytochrome P450 3A4; assay: as §1, with “CYP3A4-mediated” for “CYP2C9-mediated”, “154.5” for “7.6”; type: ADME, cell-based
Cytochrome P450 2C9 [8] = target: T1, Cytochrome P450 2C9; assay: as §1, with “28.5” for “7.6”; type: ADME, cell-based
Cytochrome P450 2D6 [9] = target: T3, Cytochrome P450 2D6; assay: as §1, with “CYP2D6-mediated” for “CYP2C9-mediated”, “6.8” for “7.6”; type: ADME, cell-based
Cytochrome P450 3A4 [10] = target: T2, Cytochrome P450 3A4; assay: as §1, with “CYP3A4-mediated” for “CYP2C9-mediated”, “6.5” for “7.6”; type: ADME, cell-based
Cytochrome P450 3A4 [11] = target: T2, Cytochrome P450 3A4; assay: as §1, with “CYP3A4-mediated” for “CYP2C9-mediated”, “8.5” for “7.6”; type: ADME, cell-based
Cytochrome P450 2C9 [12] = target: T1, Cytochrome P450 2C9; assay: as §1, with “40.5” for “7.6”; type: ADME, cell-based
Cytochrome P450 2D6 [13] = target: T3, Cytochrome P450 2D6; assay: as §1, with “CYP2D6-mediated” for “CYP2C9-mediated”, “15.2” for “7.6”; type: ADME, cell-based
Cytochrome P450 3A4 [14] = target: T2, Cytochrome P450 3A4; assay: as §1, with “CYP3A4-mediated” for “CYP2C9-mediated”, “20.4” for “7.6”; type: ADME, cell-based
Cytochrome P450 2D6 [15] = target: T3, Cytochrome P450 2D6; assay: as §1, with “CYP2D6-mediated” for “CYP2C9-mediated”, “27.8” for “7.6”; type: ADME, cell-based
Cytochrome P450 2C9 [16] = target: T1, Cytochrome P450 2C9; assay: as §1, with “136.1” for “7.6”; type: ADME, cell-based
Cytochrome P450 2C9 [17] = target: T1, Cytochrome P450 2C9; assay: as §1, with “224.2” for “7.6”; type: ADME, cell-based
Cytochrome P450 3A4 [18] = target: T2, Cytochrome P450 3A4; assay: as §1, with “CYP3A4-mediated” for “CYP2C9-mediated”, “14” for “7.6”; type: ADME, cell-based
Cytochrome P450 2D6 [19] = target: T3, Cytochrome P450 2D6; assay: as §1, with “CYP2D6-mediated” for “CYP2C9-mediated”, “31.6” for “7.6”; type: ADME, cell-based
Cytochrome P450 3A4 [20] = target: T2, Cytochrome P450 3A4; assay: as §1, with “CYP3A4-mediated” for “CYP2C9-mediated”, “53” for “7.6”; type: ADME, cell-based
Cytochrome P450 2C9 [21] = target: T1, Cytochrome P450 2C9; assay: as §1, with “47.3” for “7.6”; type: ADME, cell-based
Cytochrome P450 2D6 [22] = target: T3, Cytochrome P450 2D6; assay: as §1, with “CYP2D6-mediated” for “CYP2C9-mediated”, “5.8” for “7.6”; type: ADME, cell-based
Cytochrome P450 3A4 [23] = target: T2, Cytochrome P450 3A4; assay: as §1, with “CYP3A4-mediated” for “CYP2C9-mediated”, “90.1” for “7.6”; type: ADME, cell-based
Cytochrome P450 2D6 [24] = target: T3, Cytochrome P450 2D6; assay: as §1, with “CYP2D6-mediated” for “CYP2C9-mediated”, “113.7” for “7.6”; type: ADME, cell-based
Cytochrome P450 2C9 [25] = target: T1, Cytochrome P450 2C9; assay: as §1, with “174.8” for “7.6”; type: ADME, cell-based
Cytochrome P450 3A4 [26] = target: T2, Cytochrome P450 3A4; assay: as §1, with “CYP3A4-mediated” for “CYP2C9-mediated”; type: ADME, cell-based
Cytochrome P450 2D6 [27] = target: T3, Cytochrome P450 2D6; assay: as §1, with “CYP2D6-mediated” for “CYP2C9-mediated”, “12.2” for “7.6”; type: ADME, cell-based
Cytochrome P450 2C9 [28] = target: T1, Cytochrome P450 2C9; assay: as §1, with “9.7” for “7.6”; type: ADME, cell-based
Cytochrome P450 2C9 [29] = target: T1, Cytochrome P450 2C9; assay: as §1, with “88.3” for “7.6”; type: ADME, cell-based
Cytochrome P450 3A4 [30] = target: T2, Cytochrome P450 3A4; assay: as §1, with “CYP3A4-mediated” for “CYP2C9-mediated”, “70.3” for “7.6”; type: ADME, cell-based
Cytochrome P450 2D6 [31] = target: T3, Cytochrome P450 2D6; assay: as §1, with “CYP2D6-mediated” for “CYP2C9-mediated”, “52.1” for “7.6”; type: ADME, cell-based
Cytochrome P450 2D6 [32] = target: T3, Cytochrome P450 2D6; assay: as §1, with “CYP2D6-mediated” for “CYP2C9-mediated”, “300” for “7.6”
Cytochrome P450 2C9 [33] = target: T1, Cytochrome P450 2C9; assay: as §1, with “71.3” for “7.6”; type: ADME, cell-based
Cytochrome P450 3A4 [34] = target: T2, Cytochrome P450 3A4; assay: as §1, with “CYP3A4-mediated” for “CYP2C9-mediated”, “300” for “7.6”
Cytochrome P450 3A4 [35] = target: T2, Cytochrome P450 3A4; assay: as §1, with “CYP3A4-mediated” for “CYP2C9-mediated”, “45.8” for “7.6”; type: ADME, cell-based
Cytochrome P450 2D6 [36] = target: T3, Cytochrome P450 2D6; assay: as §1, with “CYP2D6-mediated” for “CYP2C9-mediated”, “54.3” for “7.6”; type: ADME, cell-based
Cytochrome P450 2C9 [37] = target: T1, Cytochrome P450 2C9; assay: as §1, with “44” for “7.6”; type: ADME, cell-based
Cytochrome P450 3A4 [38] = target: T2, Cytochrome P450 3A4; assay: as §1, with “CYP3A4-mediated” for “CYP2C9-mediated”, “53.7” for “7.6”; type: ADME, cell-based
Cytochrome P450 2D6 [39] = target: T3, Cytochrome P450 2D6; assay: as §1, with “CYP2D6-mediated” for “CYP2C9-mediated”, “2.1” for “7.6”; type: ADME, cell-based
Cytochrome P450 2C9 [40] = target: T1, Cytochrome P450 2C9; assay: as §1, with “452.5” for “7.6”; type: ADME, cell-based
Cytochrome P450 3A4 [41] = target: T2, Cytochrome P450 3A4; assay: as §1, with “CYP3A4-mediated” for “CYP2C9-mediated”, “16.3” for “7.6”; type: ADME, cell-based
Cytochrome P450 2D6 [42] = target: T3, Cytochrome P450 2D6; assay: as §1, with “CYP2D6-mediated” for “CYP2C9-mediated”, “15.6” for “7.6”; type: ADME, cell-based
Cytochrome P450 2C9 [43] = target: T1, Cytochrome P450 2C9; assay: as §1, with “17.1” for “7.6”; type: ADME, cell-based
Cytochrome P450 2C9 [44] = target: T1, Cytochrome P450 2C9; assay: as §1, with “34.1” for “7.6”; type: ADME, cell-based
Cytochrome P450 3A4 [45] = target: T2, Cytochrome P450 3A4; assay: as §1, with “CYP3A4-mediated” for “CYP2C9-mediated”, “25.2” for “7.6”; type: ADME, cell-based
Cytochrome P450 2D6 [46] = target: T3, Cytochrome P450 2D6; assay: as §1, with “CYP2D6-mediated” for “CYP2C9-mediated”, “33.9” for “7.6”; type: ADME, cell-based

T2 sequence (P08684 whole entry): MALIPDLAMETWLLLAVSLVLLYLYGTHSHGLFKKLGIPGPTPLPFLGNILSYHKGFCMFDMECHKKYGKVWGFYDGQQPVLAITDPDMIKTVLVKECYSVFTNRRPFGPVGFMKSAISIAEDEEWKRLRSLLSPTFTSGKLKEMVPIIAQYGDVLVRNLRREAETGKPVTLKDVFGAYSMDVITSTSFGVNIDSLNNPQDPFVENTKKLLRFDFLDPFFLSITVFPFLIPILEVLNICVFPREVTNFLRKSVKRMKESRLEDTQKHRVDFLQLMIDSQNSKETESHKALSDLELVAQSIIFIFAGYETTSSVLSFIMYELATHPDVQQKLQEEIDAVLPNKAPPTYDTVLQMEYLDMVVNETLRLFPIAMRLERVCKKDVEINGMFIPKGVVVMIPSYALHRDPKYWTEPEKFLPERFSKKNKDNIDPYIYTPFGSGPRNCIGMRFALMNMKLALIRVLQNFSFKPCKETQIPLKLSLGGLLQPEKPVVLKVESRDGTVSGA
T1 sequence (P11712 whole entry): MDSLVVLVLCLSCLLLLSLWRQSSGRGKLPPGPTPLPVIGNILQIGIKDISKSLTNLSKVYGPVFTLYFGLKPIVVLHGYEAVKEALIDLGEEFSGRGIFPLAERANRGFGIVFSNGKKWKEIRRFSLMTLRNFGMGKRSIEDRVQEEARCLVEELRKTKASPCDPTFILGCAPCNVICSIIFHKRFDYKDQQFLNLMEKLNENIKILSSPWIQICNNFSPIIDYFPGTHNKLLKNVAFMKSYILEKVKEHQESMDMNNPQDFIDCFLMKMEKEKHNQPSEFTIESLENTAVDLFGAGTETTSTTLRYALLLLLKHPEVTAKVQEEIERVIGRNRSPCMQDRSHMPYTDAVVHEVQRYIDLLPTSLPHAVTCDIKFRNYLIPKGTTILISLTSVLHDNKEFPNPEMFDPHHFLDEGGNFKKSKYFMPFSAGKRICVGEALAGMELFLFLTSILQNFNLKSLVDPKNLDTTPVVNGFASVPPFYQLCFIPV
T3 sequence (P10635 whole entry): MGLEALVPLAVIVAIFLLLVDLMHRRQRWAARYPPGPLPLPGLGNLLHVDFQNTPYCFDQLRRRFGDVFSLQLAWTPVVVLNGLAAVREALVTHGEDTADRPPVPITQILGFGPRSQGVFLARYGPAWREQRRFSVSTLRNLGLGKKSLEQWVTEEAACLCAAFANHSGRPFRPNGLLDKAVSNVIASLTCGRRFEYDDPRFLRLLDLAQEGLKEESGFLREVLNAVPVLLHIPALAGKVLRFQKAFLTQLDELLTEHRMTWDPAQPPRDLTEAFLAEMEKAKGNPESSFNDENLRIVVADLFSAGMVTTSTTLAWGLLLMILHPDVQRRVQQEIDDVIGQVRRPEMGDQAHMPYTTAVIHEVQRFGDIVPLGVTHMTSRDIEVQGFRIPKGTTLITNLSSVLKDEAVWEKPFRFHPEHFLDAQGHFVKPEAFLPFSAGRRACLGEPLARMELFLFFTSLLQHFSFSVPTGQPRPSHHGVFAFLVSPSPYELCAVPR

## CCC[C@@]1(CCc2ccccc2)CC(O)=C([C@H](CC)c2cccc(NS(=O)(=O)c3ccc(C(F)(F)F)cn3)c2)C(=O)O1
Cytochrome P450 2C9 [1]
  fold change (FC): 1.6
Cytochrome P450 3A4 [2]
  fold change (FC): 1.3
Cytochrome P450 2D6 [3]
  fold change (FC): 1

## CC(=O)N1CCN(c2ccc(OCC3COC(Cn4ccnc4)(c4ccc(Cl)cc4Cl)O3)cc2)CC1 (stereo unspecified) [KETOCONAZOLE]
Cytochrome P450 2C9 [4]
  fold change (FC): 1.4

## CS(=O)(=O)CCNCc1ccc(-c2ccc3ncnc(Nc4ccc(OCc5cccc(F)c5)c(Cl)c4)c3c2)o1 [LAPATINIB]
Cytochrome P450 2D6 [5]
  fold change (FC): 0.2
Cytochrome P450 2C9 [6]
  fold change (FC): 0.3
Cytochrome P450 3A4 [7]
  fold change (FC): 0.3

## CC1=C(CC(=O)O)c2cc(F)ccc2/C1=C\c1ccc([S+](C)[O-])cc1 (stereo unspecified)
Cytochrome P450 2C9 [8]
  fold change (FC): 1.6
Cytochrome P450 2D6 [9]
  fold change (FC): 6.7
Cytochrome P450 3A4 [10]
  fold change (FC): 6.9

## Cc1c(C)c2c(c(C)c1O)CCC(C)(COc1ccc(CC3SC(=O)NC3=O)cc1)O2 (stereo unspecified) [TROGLITAZONE]
Cytochrome P450 3A4 [11]
  fold change (FC): 5.5
Cytochrome P450 2C9 [12]
  fold change (FC): 1.2
Cytochrome P450 2D6 [13]
  fold change (FC): 3.1

## CCc1nn(CCCN2CCN(c3cccc(Cl)c3)CC2)c(=O)n1CCOc1ccccc1 [NEFAZODONE]
Cytochrome P450 3A4 [14]
  fold change (FC): 4.1
Cytochrome P450 2D6 [15]
  fold change (FC): 3
Cytochrome P450 2C9 [16]
  fold change (FC): 0.6

## CC(O)(CS(=O)(=O)c1ccc(F)cc1)C(=O)Nc1ccc(C#N)c(C(F)(F)F)c1 (stereo unspecified) [BICALUTAMIDE]
Cytochrome P450 2C9 [17]
  fold change (FC): 0.1
Cytochrome P450 3A4 [18]
  fold change (FC): 1.7
Cytochrome P450 2D6 [19]
  fold change (FC): 0.7

## CCc1oc2ccccc2c1C(=O)c1ccc(O)cc1 [BENZARONE]
Cytochrome P450 3A4 [20]
  fold change (FC): 0.8
Cytochrome P450 2C9 [21]
  fold change (FC): 0.9
Cytochrome P450 2D6 [22]
  fold change (FC): 7.5

## CC(C)C(=O)Nc1ccc([N+](=O)[O-])c(C(F)(F)F)c1 [FLUTAMIDE]
Cytochrome P450 3A4 [23]
  fold change (FC): 1.6
Cytochrome P450 2D6 [24]
  fold change (FC): 1.2
Cytochrome P450 2C9 [25]
  fold change (FC): 0.8

## C1CCC(C(CC2CCCCN2)C2CCCCC2)CC1 (stereo unspecified) [PERHEXILINE]
Cytochrome P450 3A4 [26]
  fold change (FC): 0.7
Cytochrome P450 2D6 [27]
  fold change (FC): 0.4
Cytochrome P450 2C9 [28]
  fold change (FC): 0.5

## C=CC[C@@H]1/C=C(\C)C[C@H](C)C[C@H](OC)[C@H]2O[C@@](O)(C(=O)C(=O)N3CCCC[C@H]3C(=O)O[C@H](/C(C)=C/[C@@H]3CC[C@@H](O)[C@H](OC)C3)[C@H](C)[C@@H](O)CC1=O)[C@H](C)C[C@@H]2OC [TACROLIMUS ANHYDROUS]
Cytochrome P450 2C9 [29]
  fold change (FC): 1.3
Cytochrome P450 3A4 [30]
  fold change (FC): 1.6
Cytochrome P450 2D6 [31]
  fold change (FC): 2.2

## CC(C(=O)O)c1cccc(Oc2ccccc2)c1 (stereo unspecified) [FENOPROFEN]
Cytochrome P450 2D6 [32]
  FC: 1
Cytochrome P450 2C9 [33]
  fold change (FC): 4.2
Cytochrome P450 3A4 [34]
  FC: 1

## CC(C)(C)NC(=O)[C@@H]1C[C@@H]2CCCC[C@@H]2CN1C[C@@H](O)[C@H](Cc1ccccc1)NC(=O)[C@H](CC(N)=O)NC(=O)c1ccc2ccccc2n1
Cytochrome P450 3A4 [35]
  fold change (FC): 0.8
Cytochrome P450 2D6 [36]
  fold change (FC): 0.7
Cytochrome P450 2C9 [37]
  fold change (FC): 0.8

## CC(C)NCC(O)COc1cccc2ccccc12 (stereo unspecified) [PROPRANOLOL]
Cytochrome P450 3A4 [38]
  fold change (FC): 4.7
Cytochrome P450 2D6 [39]
  fold change (FC): 120.7
Cytochrome P450 2C9 [40]
  fold change (FC): 0.6

## CCc1oc2ccccc2c1C(=O)c1cc(I)c(O)c(I)c1 [BENZIODARONE]
Cytochrome P450 3A4 [41]
  fold change (FC): 2.2
Cytochrome P450 2D6 [42]
  fold change (FC): 2.3
Cytochrome P450 2C9 [43]
  fold change (FC): 2.1

## COc1cc(C(=O)NS(=O)(=O)c2ccccc2C)ccc1Cc1cn(C)c2ccc(NC(=O)OC3CCCC3)cc12 [ZAFIRLUKAST]
Cytochrome P450 2C9 [44]
  fold change (FC): 1.4
Cytochrome P450 3A4 [45]
  fold change (FC): 1.9
Cytochrome P450 2D6 [46]
  fold change (FC): 1.4
